Source: patent US8299083B2, “PDE5 inhibitor compositions and methods for treating cardiac indications” (The Johns Hopkins University, priority 2004, dated 2012)
Several values for one entry are separate records, joined by “and”; a condition that tells them apart may be missing. Equal entries are not always repeated.

Legend:
myocardial cGMP = assay: Myocardial cyclic nucleotide levels; format: in vivo, mouse; conditions: for whole myocardial cGMP: acute intravenous administration
Description: Hearts were washed in ice-cold PBS, homogenized in 6% trichloroacetic acid, centrifuged and extracted with water-saturated ether. The aqueous layer was transferred, vacuum dried, and the pellet resuspended in sodium acetate buffer for cAMP and cGMP enzyme immunoassay (Amersham Pharmacia Biotech, Buckinghamshire, UK).

[1] = system: C57bl6 mice, isoproterenol-stimulated heart; assay: Acute isoproterenol-stimulated contractility in intact mice (pressure-volume relations); format: in vivo, mouse; conditions: acute intravenous administration
Experimental: Isoproterenol (ISO: 20 ng/kg/minutes i.v.×5 min) with or without PDE5A inhibitor was given to anesthetized intact mice, and in vivo heart function assessed by pressure-volume relations at a fixed atrial pacing rate of 600-650 min^−1. Data were measured at baseline, with ISO, re-baseline, PDE5A-inhibition, and PDE5A inhibition+ISO. The ISO-only response was highly reproducible.

[2] = system: C57BL/6 mice, pressure overload by transverse aortic constriction; assay: TAC-induced cardiac hypertrophy, remodeling and fibrosis (heart weight/tibia length, histology); format: in vivo, mouse; conditions: TAC mice, concurrent oral treatment
Description: TAC induced marked heart chamber and cellular hypertrophy (+100% by 3-weeks) that progressed to chamber dilation with reduced fractional shortening after 9 weeks. […] TAC induced a time-dependent increase in myocardial fibrosis and myocyte hypertrophy and both were suppressed by PDE5A inhibition (FIG. 1C, e.g. 67% reduction in fibrosis in 9-week hearts, p<0.0001).
(§1) Pressure overload was produced by transverse aortic constriction.
Hearts were fixed with 10% formalin overnight, then embedded in paraffin, sectioned at 5 μm thickness and stained with PAS methenamine. Cardiomyocyte diameter and interstitial collagen fraction were determined using computer-assisted image analysis (Adobe Photoshop 5.0, NIH Image J), with the observer blinded as to tissue source. At least 4-5 different hearts, with five separate fields of cells (total 50-70 cells for each heart) were quantified for cellular analysis.

fetal gene expression = assay: Cardiac fetal gene expression (RNA dot blot) in TAC hearts; format: in vivo, mouse; conditions: 3 wk TAC
Experimental: RNA samples were prepared from snap-frozen hearts using a ready-to-use reagent for the isolation of total RNA TRIZOL reagent (Life Technology, Gaithersburg, Md.) according to the manufacturer's protocol. RNA dot-blot analysis was performed using a published protocol with a set of oligonucleotide probes^59. Data are shown normalized to GAPDH measured for each respective sample.

[3] = system: C57bl6 mice, isoproterenol-induced hypertrophy; assay: Chronic isoproterenol infusion (osmotic pump) cardiac hypertrophy; format: in vivo, mouse; conditions: 2 weeks
Experimental: Acute increases in cardiac chamber contractility were induced by isoproterenol infusion in control C57b16 mice. The increase in cardiac systolic function was assessed by in vivo pressure-volume relations (FIG. 11E), and is reflected by a widening of the loop and shift of the upper left corner to the left. […] This supports the myocyte effects at the intact heart level. Furthermore, if isoproterenol is infused chronically by means of an implanted osmotic mini-pump, the heart responds by increasing the cardiac mass (hypertrophy) and with some dilation. This is shown for a group of control C57b16 mice (FIGS. 12A and 12B).

purified PDE5A = purified PDE5A (Homo sapiens, UniProt O76074); conditions: cited from earlier work
ex vivo vascular rings = conditions: cited from earlier work
[4] = system: C57BL/6 mice, pressure overload by transverse aortic constriction; assay: In vivo cardiac hemodynamics by pressure-volume analysis, TAC mice; design: species or system mouse; conditions: 3 wk TAC, compared with sildenafil results
Experimental: as §1
Transthoracic two-dimensional guided M-mode echocardiography was performed in non-anesthetized mice. Measurements were done using an echocardiography system, the SEQUOIA C256 (Siemens, Munich, Del.) with the 15 MHz linear-array transducer. Intact heart hemodynamic analysis was performed as described^90. These studies employed a four-electrode pressure-volume catheter (model SPR-839, Millar Instruments) placed through the left ventricular apex in the open chest anesthetized animal and positioned along the longitudinal axis to record chamber volume by impedance and pressure by micromanometry.
All hemodynamic data were recorded using custom developed software, digitizing signals at 2 KHz. End-diastolic and end-systolic volumes were the average of volumes measured during isovolumic contraction and relaxation, respectively. ESP was the pressure at maximal chamber elastance (P/V ratio)^1. EDP was the diastolic pressure at the lower right hand corner of the pressure-volume loop. Cardiac output was determined from a perivascular flow probe (Transonics, Ithica, N.Y.) placed around the thoracic aorta. Ea was equal to the ratio of end-systolic pressure divided by stroke volume. The volume catheter signal was calibrated for both gain and offset. Gain was determined by setting the catheter-derived cardiac output (equal to pressure-volume loop width times heart rate) to that obtained from the calibrated flow probe value. Offset was determined using the hypertonic saline method Ventricular power was equal to the instantaneous product of pressure times flow, and the peak power was divided by EDV to obtain the power index PMXI^79. […] The slope of this relation Ees was normalized by heart mass and expressed per gm heart mass. Msw was derived from the linear relation between stroke work and EDV from the same set of variably loaded cardiac cycles used to derive Eesn, and is another load-independent assessment of systolic contractile function^4. Tau was obtained from the model: P=Po+ae^−t/□ . . . fitting data during isovolumic relaxation. dP/dt was derived from a digital filter (5-point weighted slope). PFR/EDV was derived from the maximal first derivative of the volume signal during early diastole, divided by EDV.

[5] = system: isolated adult murine myocytes; assay: Isoproterenol-stimulated contraction of isolated adult cardiac myocytes; format: cell-based, mouse; conditions: ODQ plus sildenafil plus ISO
Experimental: Louis, Mo.) for 6-7 min. Ventricles were gently chopped, filtered (150μ mesh), centrifuged (500 RPM×1 min), and rinsed in Tyrode's solution with increasing calcium (final 1.8 mM Ca^2+). Cells were incubated with 5 μM Indo-1 AM (Molecular Probes), rinsed, and studied at 27° C. by field stimulation in an inverted fluorescence microscope (Diaphot 200; Nikon, Inc). Sarcomere length (IonOptix, MA) and whole cell calcium transients were measured.

[6] = human, cited from earlier work
PKG-1 = PKG-1 activity in isolated adult myocytes; format: cell-based, mouse
Experimental: After 10 min, cells were lysed and PKG-1 activity determined.

[7] = system: total cGMP-esterase activity; assay: cGMP-esterase (low Km cGMP phosphodiesterase) activity of heart and isolated myocytes; format: biochemical, mouse
[8] = inhibitor combined with isoproterenol

CC[C@H](C)[C@@H]1NC(=O)[C@H](CCCNC(=N)N)NC(=O)[C@H](CC(=O)O)NC(=O)[C@H](CCSC)NC(=O)[C@H](CCCNC(=N)N)NC(=O)CNC(=O)CNC(=O)[C@H](Cc2ccccc2)NC(=O)[C@@H](NC(=O)[C@H](CO)NC(=O)[C@H](CO)NC(=O)[C@H](CCCNC(=N)N)NC(=O)[C@H](CCCNC(=N)N)NC(=O)[C@H](CC(C)C)NC(=O)[C@@H](N)CO)CSSC[C@@H](C(=O)N[C@@H](CC(N)=O)C(=O)N[C@@H](CO)C(=O)N[C@@H](Cc2ccccc2)C(=O)N[C@@H](CCCNC(=N)N)C(=O)N[C@@H](Cc2ccc(O)cc2)C(=O)O)NC(=O)CNC(=O)[C@H](CC(C)C)NC(=O)CNC(=O)[C@H](CO)NC(=O)[C@H](CCC(N)=O)NC(=O)[C@H](C)NC(=O)CNC1=O [ANP, atrial natriuretic peptide]
whole myocardial cGMP (myocardial cGMP): marked rise in myocardial cGMP | isoproterenol-stimulated contractility in intact heart [1]: had no effect on the ISO response in the intact heart

CCCc1nn(C)c2c(NCc3ccc(OC)c(Cl)c3)nc(COCC(=O)O)nc12 [EMD 360527, [7-(3-Chloro-4-methoxy-benzylamino)-1-methyl-3-propyl-1H-pyrazolo[4,3-d]pyrimidin-5-ylmethoxy]-acetic acid]
TAC-induced hypertrophy and chamber remodeling [2]: yielded identical findings | TAC-induced hypertrophy and chamber remodeling ([2]; listed as EMD360527): prevented the development of both cardiac hypertrophy and accompanying chamber dilation and remodeling | fetal gene expression (fetal gene expression): reversed the TAC-induced rise in fetal gene expression | development of cardiac hypertrophy [3]: markedly inhibited the development of cardiac hypertrophy | IC50 (purified PDE5A): ~10 nM | IC50 (ex vivo vascular rings): 1000 nM | total myocardial cGMP (myocardial cGMP; TAC hearts, chronic co-treatment): slight decline | whole myocardial cGMP (myocardial cGMP): negligible effect | cardiac function by pressure-volume analysis [4]: near identical physiologic results

O=c1onc2cnc3ccccc3n12 [ODQ]
blunting of ISO response by sildenafil when sGC is inhibited [5]: prevented

CN1CC(=O)N2[C@H](c3ccc4c(c3)OCO4)c3[nH]c4ccccc4c3C[C@@H]2C1=O [tadalafil]
time of peak plasma concentration post-dose ([6]; in vivo, po): two | apparent oral clearance (CL/F) [6]: 2.48 L/h | mean elimination half-life [6]: about 17.5 h | enhancement of PKG-1 activity (PKG-1; basal conditions, inhibitor alone): ~10% | rise in PKG-1 activity (PKG-1; [8]): 50% and 70% | rise in PKG-1 activity over ISO alone (PKG-1; [8]): 30% | proportion of total cGMP-esterase activity attributable to PDE5 ([7]; 3 week TAC hearts): ~60% | percent of total cGMP-esterase activity blocked by co-incubation ([7]; sham control hearts (baseline)): approximately 30%
